Results reported in article PMC11003488 (Journal of Enzyme Inhibition and Medicinal Chemistry, 2023).
Read-outs that look alike come from different tables or passages of the source.

Columns and labels:
Breast cancer cell lines = experiment: NCI-60 SRB growth inhibition, subpanel; format: cell-based, human; settings: for GI50: Homo sapiens
ACHN = experiment: NCI-60 SRB growth inhibition, one-dose and five-dose; format: cell-based; settings: Homo sapiens; for inhibition at 10 µM: read-out: percent growth inhibition
Melanoma cell lines = experiment: NCI-60 SRB growth inhibition, subpanel; format: cell-based, human; settings: for GI50: Homo sapiens
[1] = Cytotoxicity towards normal fibroblasts, safety index; format: cell-based, human; settings: human, WI-38 normal fibroblast cells
[2] = tested on: WI-38 normal human fibroblast cells; experiment: as above; format: cell-based; settings: WI-38 versus cancer cell lines
Colon cancer cell lines = experiment: NCI-60 SRB growth inhibition, subpanel; format: cell-based, human; settings: for GI50: Homo sapiens
SK-OV-3 = experiment: NCI-60 SRB growth inhibition, one-dose and five-dose; format: cell-based; settings: Homo sapiens; for GI50: SK-OV-3; for inhibition at 10 µM: SK-OV-3, read-out: percent growth inhibition
Human VEGFR-2 = Human VEGFR-2 (Homo sapiens, UniProt P35968); experiment: VEGFR-2 inhibition assay; format: biochemical
Human VEGFR-2, sequence (P35968 20-1356): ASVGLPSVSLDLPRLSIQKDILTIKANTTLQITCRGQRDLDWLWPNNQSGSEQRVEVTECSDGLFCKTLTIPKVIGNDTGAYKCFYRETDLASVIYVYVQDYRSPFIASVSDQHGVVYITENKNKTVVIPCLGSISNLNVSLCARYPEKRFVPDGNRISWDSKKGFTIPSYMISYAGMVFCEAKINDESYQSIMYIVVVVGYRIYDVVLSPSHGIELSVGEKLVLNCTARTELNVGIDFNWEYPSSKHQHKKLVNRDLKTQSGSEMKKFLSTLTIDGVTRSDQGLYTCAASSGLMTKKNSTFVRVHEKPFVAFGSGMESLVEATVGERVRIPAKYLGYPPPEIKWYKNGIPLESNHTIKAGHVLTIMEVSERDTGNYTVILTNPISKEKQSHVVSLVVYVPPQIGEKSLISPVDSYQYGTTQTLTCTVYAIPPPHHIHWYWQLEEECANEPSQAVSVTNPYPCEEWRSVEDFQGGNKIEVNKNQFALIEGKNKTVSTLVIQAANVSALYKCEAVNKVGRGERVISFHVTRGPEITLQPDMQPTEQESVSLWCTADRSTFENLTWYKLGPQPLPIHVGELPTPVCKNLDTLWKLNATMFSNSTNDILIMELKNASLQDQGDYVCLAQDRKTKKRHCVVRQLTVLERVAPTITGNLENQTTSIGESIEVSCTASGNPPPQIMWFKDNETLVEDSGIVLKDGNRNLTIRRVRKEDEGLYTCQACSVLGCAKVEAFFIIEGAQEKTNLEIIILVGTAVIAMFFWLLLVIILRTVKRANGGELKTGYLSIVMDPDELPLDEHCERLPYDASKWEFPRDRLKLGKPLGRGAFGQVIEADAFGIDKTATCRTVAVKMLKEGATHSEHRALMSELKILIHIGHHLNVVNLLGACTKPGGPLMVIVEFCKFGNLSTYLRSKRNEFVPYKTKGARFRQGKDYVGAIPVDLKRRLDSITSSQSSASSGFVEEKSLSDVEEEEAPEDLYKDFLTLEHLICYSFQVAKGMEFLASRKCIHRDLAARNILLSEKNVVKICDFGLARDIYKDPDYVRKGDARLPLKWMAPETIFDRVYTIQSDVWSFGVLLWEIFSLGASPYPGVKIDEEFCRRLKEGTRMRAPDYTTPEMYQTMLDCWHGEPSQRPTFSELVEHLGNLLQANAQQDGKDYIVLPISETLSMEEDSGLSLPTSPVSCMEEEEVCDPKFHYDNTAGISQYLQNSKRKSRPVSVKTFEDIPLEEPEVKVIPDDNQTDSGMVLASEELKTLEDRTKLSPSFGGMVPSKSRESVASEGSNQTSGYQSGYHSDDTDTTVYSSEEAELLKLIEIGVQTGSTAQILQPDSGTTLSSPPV

HOP-62 = experiment: NCI-60 SRB growth inhibition, one-dose and five-dose; format: cell-based; settings: Homo sapiens; for GI50: HOP-62; for inhibition at 10 µM: HOP-62, read-out: percent growth inhibition
KM12 = experiment: as above; format: cell-based; settings: Homo sapiens; for GI50: KM12; for inhibition at 10 µM: KM12, read-out: percent growth inhibition
MDA-MB-435 = experiment: as above; format: cell-based; settings: Homo sapiens; for GI50: MDA-MB-435; for inhibition at 10 µM: MDA-MB-435, read-out: percent growth inhibition
MDA-MB-468 = experiment: as above; format: cell-based; settings: Homo sapiens; for GI50: MDA-MB-468; for inhibition at 10 µM: MDA-MB-468, read-out: percent growth inhibition
MALME-3M = experiment: as above; format: cell-based; settings: Homo sapiens; for inhibition at 10 µM: read-out: percent growth inhibition
UO-31 = experiment: as above; format: cell-based; settings: Homo sapiens; for GI50: UO-31
MDA-MB-231/ATCC = experiment: as above; format: cell-based; settings: Homo sapiens; for GI50: MDA-MB-231
LOX IMVI = experiment: as above; format: cell-based; settings: Homo sapiens; for inhibition at 10 µM: read-out: percent growth inhibition
NSCLC cell lines = experiment: NCI-60 SRB growth inhibition, subpanel; format: cell-based, human; settings: for GI50: Homo sapiens
CCRF-CEM = experiment: NCI-60 SRB growth inhibition, one-dose and five-dose; format: cell-based; settings: Homo sapiens; for inhibition at 10 µM: read-out: percent growth inhibition
SF-295 = experiment: as above; format: cell-based; settings: Homo sapiens; for GI50: SF-295; for inhibition at 10 µM: SF-295, read-out: percent growth inhibition
OVCAR-4 = experiment: as above; format: cell-based; settings: Homo sapiens; for GI50: OVCAR-4; for inhibition at 10 µM: OVCAR-4, read-out: percent growth inhibition
DU-145 = experiment: as above; format: cell-based; settings: Homo sapiens; for GI50: DU-145; for inhibition at 10 µM: DU-145, read-out: percent growth inhibition
[3] = tested on: Ovarian cancer cell lines; experiment: NCI-60 SRB growth inhibition, subpanel; format: cell-based, human; settings: for GI50: Homo sapiens
[4] = tested on: Prostate cancer cell lines; experiment: NCI-60 SRB growth inhibition, subpanel; format: cell-based, human; settings: for GI50: Homo sapiens
COLO 205 = experiment: NCI-60 SRB growth inhibition, one-dose and five-dose; format: cell-based; settings: Homo sapiens; for GI50: COLO 205; for inhibition at 10 µM: COLO 205, read-out: percent growth inhibition
Renal cancer cell lines = experiment: NCI-60 SRB growth inhibition, subpanel; format: cell-based, human; settings: for GI50: Homo sapiens
UACC-257 = experiment: NCI-60 SRB growth inhibition, one-dose and five-dose; format: cell-based; settings: Homo sapiens; for GI50: UACC-257; for inhibition at 10 µM: UACC-257, read-out: percent growth inhibition
Leukaemia cell lines = experiment: NCI-60 SRB growth inhibition, subpanel; format: cell-based, human; settings: for GI50: Homo sapiens
CNS cancer cell lines = experiment: NCI-60 SRB growth inhibition, subpanel; format: cell-based, human; settings: for GI50: Homo sapiens
NCI-H226 = experiment: NCI-60 SRB growth inhibition, one-dose and five-dose; format: cell-based; settings: Homo sapiens; for GI50: NCI-H226; for inhibition at 10 µM: NCI-H226, read-out: percent growth inhibition
HT29 = experiment: as above; format: cell-based; settings: Homo sapiens; for GI50: HT-29; for inhibition at 10 µM: HT-29, read-out: percent growth inhibition
SK-MEL-5 = experiment: as above; format: cell-based; settings: Homo sapiens; for GI50: SK-MEL-5; for inhibition at 10 µM: SK-MEL-5, read-out: percent growth inhibition

Work on `COc1ccc(CNc2cccc(C(=O)/C=C/c3cccnc3)c2)cc1OC` [Compound 5c, (E)-1–(3-((3,4-dimethoxybenzyl)amino)phenyl)-3-(pyridin-3-yl)prop-2-en-1-one] yielded a GI50 (Breast cancer cell lines; read-out: GI50 MG-MID) of 5.96 µM, a GI50 (ACHN) of 3.95 µM and an inhibition at 10 µM (ACHN) of 132%. For the same compound, the GI50 (Melanoma cell lines; read-out: GI50 MG-MID) was 7.75 µM, the GI50 at 48 h [1] was greater than 100 µM and the Safety index [2] was greater than 1. The GI50 (Colon cancer cell lines; read-out: GI50 MG-MID) was 4.45 µM, the GI50 (SK-OV-3) was 16.6 µM and the inhibition at 10 µM (SK-OV-3) was 41.8%. It also gave an IC50 (Human VEGFR-2) of 0.96 ± 0.012 µM, a GI50 (HOP-62) of 12.2 µM and an inhibition at 10 µM (HOP-62) of 30%. It also gave a GI50 (KM12) of 1.99 µM, an inhibition at 10 µM (KM12) of 165% and a GI50 (MDA-MB-435) of 2.46 µM. The inhibition at 10 µM (MDA-MB-435) was 84.7%, the GI50 (MDA-MB-468) was 4.06 µM and the inhibition at 10 µM (MDA-MB-468) was 157%. It also gave a GI50 (MALME-3M) of 12.5 µM, an inhibition at 10 µM (MALME-3M) of 101% and a GI50 (UO-31) of 10.5 µM. It also gave an inhibition at 10 µM (UO-31; UO-31, read-out: percent growth inhibition) of 65%, a GI50 (MDA-MB-231/ATCC) of 2.96 µM and an inhibition at 10 µM (MDA-MB-231/ATCC; MDA-MB-231, read-out: percent growth inhibition) of 94.5%. The GI50 (LOX IMVI) was 1.76 µM, the inhibition at 10 µM (LOX IMVI) was 192% and the GI50 (NSCLC cell lines; read-out: GI50 MG-MID) was 11.2 µM. For the same compound, the GI50 (CCRF-CEM) was 2.55 µM, the inhibition at 10 µM (CCRF-CEM) was 87.1% and the GI50 (SF-295) was 10.4 µM. It also gave an inhibition at 10 µM (SF-295) of 53.7%, a GI50 (OVCAR-4) of 9.31 µM and an inhibition at 10 µM (OVCAR-4) of 80.1%. For the same compound, the GI50 (DU-145) was 12.4 µM, the inhibition at 10 µM (DU-145) was 60.5% and the GI50 ([3]; read-out: GI50 MG-MID) was 8.65 µM. For the same compound, the GI50 ([4]; read-out: GI50 MG-MID) was 10.2 µM, the GI50 (COLO 205) was 16.5 µM and the inhibition at 10 µM (COLO 205) was 84.7%. For the same compound, the GI50 (Renal cancer cell lines; read-out: GI50 MG-MID) was 9.08 µM, the GI50 (UACC-257) was 12.5 µM and the inhibition at 10 µM (UACC-257) was 34%. For the same compound, the GI50 (Leukaemia cell lines; read-out: GI50 MG-MID) was 2.6 µM, the GI50 (CNS cancer cell lines; read-out: GI50 MG-MID) was 9.11 µM and the GI50 (NCI-H226) was 14.7 µM. It also gave an inhibition at 10 µM (NCI-H226) of 19.7%, a GI50 (HT29) of 4.38 µM and an inhibition at 10 µM (HT29) of 178%. It also gave a GI50 (SK-MEL-5) of 5.86 µM and an inhibition at 10 µM (SK-MEL-5) of 103%.

For `O=C(/C=C/c1cccnc1)c1cccc(NCc2csc3ccccc23)c1` [Compound 5d, (E)-1–(3-((benzo[b]thiophen-3-ylmethyl)amino)phenyl)-3-(pyridin-3-yl)prop-2-en-1-one], the GI50 (Breast cancer cell lines; read-out: GI50 MG-MID) was 2.69 µM, the GI50 (Breast cancer cell lines; read-out: MG-MID GI50) was 2.69 µM and the “SI (Selectivity Index)” value (Breast cancer cell lines; full panel MG-MID / Breast Cancer subpanel MG-MID) was 1.76. For the same compound, the GI50 (ACHN) was 2.82 µM, the inhibition at 10 µM (ACHN) was 155% and the GI50 (Melanoma cell lines; read-out: GI50 MG-MID) was 3.76 µM. The GI50 (Melanoma cell lines; read-out: MG-MID GI50) was 3.76 µM, the “SI (Selectivity Index)” value (Melanoma cell lines; full panel MG-MID / Melanoma subpanel MG-MID) was 1.26 and the GI50 at 48 h [1] was greater than 100 µM. For the same compound, the Safety index [2] was greater than 1, the GI50 (Colon cancer cell lines; read-out: GI50 MG-MID) was 3.93 µM and the GI50 (Colon cancer cell lines; read-out: MG-MID GI50) was 3.93 µM. For the same compound, the “SI (Selectivity Index)” value (Colon cancer cell lines; full panel MG-MID / Colon Cancer subpanel MG-MID) was 1.21, the GI50 (SK-OV-3) was 11.8 µM and the inhibition at 10 µM (SK-OV-3) was 35.8%. For the same compound, the IC50 (Human VEGFR-2) was 1.46 ± 0.009 µM, the GI50 (HOP-62) was 10.2 µM and the inhibition at 10 µM (HOP-62) was 65.2%. It also gave a GI50 (KM12) of 3.58 µM, an inhibition at 10 µM (KM12) of 158% and a GI50 (MDA-MB-435) of 2.55 µM. It also gave an inhibition at 10 µM (MDA-MB-435) of 121%, a GI50 (MDA-MB-468) of 1.82 µM and an inhibition at 10 µM (MDA-MB-468) of 162%. The GI50 (MALME-3M) was 5.92 µM, the inhibition at 10 µM (MALME-3M) was 104% and the GI50 (UO-31) was 4.94 µM. The GI50 (MDA-MB-231/ATCC) was 2.67 µM, the GI50 (LOX IMVI) was 1.69 µM and the inhibition at 10 µM (LOX IMVI) was 198%. For the same compound, the GI50 (NSCLC cell lines; read-out: GI50 MG-MID) was 6.83 µM, the GI50 (NSCLC cell lines; read-out: MG-MID GI50) was 6.83 µM and the “SI (Selectivity Index)” value (NSCLC cell lines; full panel MG-MID / NSCLC subpanel MG-MID) was 0.69. The GI50 (CCRF-CEM) was 3.01 µM, the inhibition at 10 µM (CCRF-CEM) was 134% and the GI50 (SF-295) was 5.12 µM. For the same compound, the inhibition at 10 µM (SF-295) was 92.9%, the GI50 (OVCAR-4) was 4.27 µM and the inhibition at 10 µM (OVCAR-4) was 82.5%. The GI50 (DU-145) was 7.35 µM, the inhibition at 10 µM (DU-145) was 71.9% and the GI50 ([3]; read-out: GI50 MG-MID) was 5.3 µM. For the same compound, the GI50 ([3]; read-out: MG-MID GI50) was 5.3 µM, the “SI (Selectivity Index)” value ([3]; full panel MG-MID / Ovarian Cancer subpanel MG-MID) was 0.89 and the GI50 ([4]; read-out: GI50 MG-MID) was 5.56 µM. The GI50 ([4]; read-out: MG-MID GI50) was 5.56 µM, the “SI (Selectivity Index)” value ([4]; full panel MG-MID / Prostatic Cancer subpanel MG-MID) was 0.85 and the GI50 (COLO 205) was 11.6 µM. For the same compound, the inhibition at 10 µM (COLO 205) was 86.5%, the GI50 (Renal cancer cell lines; read-out: GI50 MG-MID) was 6.46 µM and the GI50 (Renal cancer cell lines; read-out: MG-MID GI50) was 6.46 µM. For the same compound, the “SI (Selectivity Index)” value (Renal cancer cell lines; full panel MG-MID / Renal Cancer subpanel MG-MID) was 0.73, the GI50 (UACC-257) was 5.58 µM and the inhibition at 10 µM (UACC-257) was 105%. For the same compound, the GI50 (Leukaemia cell lines; read-out: GI50 MG-MID) was 2.76 µM, the GI50 (Leukaemia cell lines; read-out: MG-MID GI50) was 2.76 µM and the “SI (Selectivity Index)” value (Leukaemia cell lines; full panel MG-MID / leukaemia subpanel MG-MID) was 1.72. For the same compound, the GI50 (CNS cancer cell lines; read-out: GI50 MG-MID) was 5.4 µM, the GI50 (CNS cancer cell lines; read-out: MG-MID GI50) was 5.4 µM and the “SI (Selectivity Index)” value (CNS cancer cell lines; full panel MG-MID / CNS Cancer subpanel MG-MID) was 0.88. For the same compound, the GI50 (NCI-H226) was 3.43 µM, the inhibition at 10 µM (NCI-H226) was 111% and the GI50 (HT29) was 3.12 µM. For the same compound, the inhibition at 10 µM (HT29) was 165%, the GI50 (SK-MEL-5) was 2.89 µM and the inhibition at 10 µM (SK-MEL-5) was 163%.
